Experimental data taken from US11959083B2, “Immunosuppression-reverting oligonucleotides inhibiting the expression of CD39” (Secarna Pharmaceuticals GmbH & Co. KG, priority 2016, dated 2024).
l = locked nucleic acid (LNA); d = 2'-deoxy (DNA)

Tests used:
Format in all cases: cell-based, human
hCD39 mRNA [1] = assay: IC50 determination / concentration-dependent hCD39 mRNA knockdown in HDLM-2 cells; conditions: for mRNA inhibition: HDLM-2, 3 days; for IC50: HDLM-2 cells, hCD39 mRNA, 3 days
Method: HDLM-2 cells were treated for 3 days with the indicated concentration of the respective antisense oligonucleotide. Residual hCD39 expression is depicted compared to untreated control cells. hCD39 mRNA expression values were normalized to expression of the housekeeping gene HPRT1.
The antisense oligonucleotide A04040H (SEQ ID No. 3) that had shown potent activity in the first and second screening round was used as reference. HDLM-2 cells treated for 3 days with the indicated concentrations of the respective antisense oligonucleotide. hCD39 mRNA expression values were normalized to expression of the housekeeping gene HPRT1. Residual hCD39 mRNA expression relative to untreated cells (set as 100) is depicted. Depicted is the mean of triplicate wells+/−SD.
In a second experiment the concentration-dependency of effects and the IC50 values of hCD39 antisense oligonucleotides A04010H (SEQ ID No.14), A04016H (SEQ ID No.20), A04017H (SEQ ID No.21), A04020H (SEQ ID No. 24) and A04026H (SEQ ID No.30) were tested. […] HDLM-2 cells were treated with titrated amounts of the respective antisense oligonucleotide (concentrations: 10 μM, 3.3 μM, 1.1 μM, 370 nM, 120 nM, 41 nM, 14 nM, 4.5 nM). hCD39 mRNA expression was analyzed after three days of treatment. FIG. 5 and Table 9 depicts the concentration-dependent reduction of hCD39 mRNA expression by the selected hCD39 antisense oligonucleotides.
The hCD39 antisense oligonucleotides A04051H (SEQ ID No.88), A04052H (SEQ ID No.89), A04053H ([…]), A04056H (SEQ ID No.92), A04059H (SEQ ID No.94), A04060H (SEQ ID No.95), and A04061H (SEQ ID No.96) had shown potent single-dose activity in both HDLM-2 and A-172 cells. […] The antisense oligonucleotide A04040H that had shown potent activity in the first screening round was used as reference. hCD39 mRNA expression was analyzed after 3 days of treatment. FIG. 7 depicts the concentration-dependent reduction of hCD39 expression by hCD39 antisense oligonucleotides.

hCD39 mRNA [2] = assay: hCD39 mRNA knockdown efficacy screen in A-172 cells (single dose, gymnotic delivery, QuantiGene Singleplex); conditions: 10 μM, 3 days; for Mean hCD39 mRNA expression (relative to untreated cells set as 1): first screening round; for Mean hCD39 mRNA expression (relative to untreated cells set as 1) / Relative hCD39 mRNA expression (compared to non-treated cells): normalized to HPRT1; for Relative hCD39 mRNA expression (compared to non-treated cells): second screening round; for Residual hCD39 mRNA expression relative to untreated cells (set as 1): third screening round
Method: (§1) FIGS. 2A to 2D depict hCD39 mRNA knockdown efficacy of hCD39 antisense oligonucleotides in human cancer cell lines HDLM-2 (human Hodgkin Lymphoma) in a first and second screening round (FIGS. 2A-1 and 2A-2) and 2B-1 and 2B-2 and A-172 (human glioblastoma) in a first and second screening round (FIGS. 2C-1 and 2C-2) and 2D-1 and 2D-2. HDLM-2 and A-172 cells were treated for 3 days with 10 μM of the respective antisense oligonucleotide. As negative control, cells were treated with neg1, an antisense oligonucleotide having the sequence CGTTTAGGCTATGTACTT (SEQ ID NO:99) (described in WO2014154843 A1). Residual hCD39 mRNA expression relative to untreated cells is depicted. Expression values were normalized to expression of the housekeeping gene HPRT1. Depicted is the mean of triplicate wells+/−SD.
(§2) FIGS. 6A-6B depicts a third screening round where further antisense oligonucleotides were designed. These antisense oligonucleotides were based on efficient antisense oligonucleotides from the first and second screening round. Therefore, hCD39 antisense oligonucleotides were tested in human cancer cell lines HDLM-2 (human Hodgkin's lymphoma) (FIG. 6A) and A-172 (human glioblastoma) (FIG. 6B). HDLM-2 and A-172 cells were treated for 3 days with 10 μM of the respective antisense oligonucleotide. […] Residual hCD39 mRNA expression relative to untreated cells (set as 1) is depicted.
(§3) In order to analyze the efficacy of hCD39 antisense oligonucleotides of the present invention with regard to the knockdown of hCD39 mRNA expression in cancer cell lines, HDLM-2 (human Hodgkin Lymphoma, DSMZ) and A-172 (human glioblastoma, ATCC) cells were treated with a single dose (concentration: 10 μM without addition of any transfection reagent; this process is called gymnotic delivery) of the respective antisense oligonucleotide as shown in FIG. 2A to 2D. hCD39 and HPRT1 mRNA expression was analyzed three days later using the QuantiGene Singleplex assay (Affymetrix) and hCD39 expression values were normalized to HPRT1 values. […] Values of the mean normalized mRNA expression of hCD39 compared to non-treated cells are listed for A-172 (Table 4 for first screening round and Table 5 for second screening round) and HDLM-2 cells (Table 6 for first screening round and Table 7 for second screening round) in the following:
(§4) For a third screening round, new antisense oligonucleotides were designed. These antisense oligonucleotides were based on efficient antisense oligonucleotides from the first screening round with modifications in length, exact position on mRNA and chemical modification pattern. Therefore, hCD39 antisense oligonucleotides were tested in human cancer cell lines (FIG. 6A, Table 10) HDLM-2 (human Hodgkin's lymphoma) and (FIG. 6B, Table 11) A-172 (human glioblastoma). HDLM-2 and A-172 cells were treated for 3 days with 10 μM of the respective antisense oligonucleotide. […] Residual hCD39 mRNA expression relative to untreated cells (set as 1) is depicted.

hCD39 mRNA [3] = assay: hCD39 mRNA knockdown efficacy screen in HDLM-2 cells (single dose, gymnotic delivery, QuantiGene Singleplex); parameters: key to Relative hCD39 mRNA expression (compared to non-treated cells): *: values are below detection limit; conditions: 10 μM, 3 days; for Mean hCD39 mRNA expression normalized to HPRT1 relative to untreated control = 1: first screening round; for Relative hCD39 mRNA expression (compared to non-treated cells): second screening round, normalized to HPRT1; for Residual hCD39 mRNA expression relative to untreated cells (set as 1): third screening round
Method: as §1, §2, §3, §4

[4] = first screening round (Table 8)

Row | Substance | Mean hCD39 mRNA expression (relative to untreated cells set as 1) (hCD39 mRNA [2]) | Relative hCD39 mRNA expression (compared to non-treated cells) (hCD39 mRNA [2]) | Mean hCD39 mRNA expression normalized to HPRT1 relative to untreated control = 1 (hCD39 mRNA [3]) | Relative hCD39 mRNA expression (compared to non-treated cells) (hCD39 mRNA [3]) | Residual hCD39 mRNA expression relative to untreated cells (set as 1) (hCD39 mRNA [2]) | Residual hCD39 mRNA expression relative to untreated cells (set as 1) (hCD39 mRNA [3]) | further results
1 | +C*+A*+G*T*C*A*A*T*C*C*T*G*C*+T*+C*+A (antisense CAGTCAATCCTGCTCA; sugars from the 5' end l3 d10 l3, all phosphorothioate, methylation of C not given here) [A04039H] | 0.27 | 0.14 | 0.06 | * | – | – | mRNA inhibition (hCD39 mRNA [1]; 0.0045 μM, Table 8): 11.56%; mRNA inhibition (hCD39 mRNA [1]; 0.013 μM, Table 8): 14.30%; mRNA inhibition (hCD39 mRNA [1]; 0.04 μM, Table 8): 20.47%; mRNA inhibition (hCD39 mRNA [1]; 0.12 μM, Table 8): 44.03%; mRNA inhibition (hCD39 mRNA [1]; 0.4 μM, Table 8): 71.25%; mRNA inhibition (hCD39 mRNA [1]; 1.1 μM, Table 8): 85.22%; mRNA inhibition (hCD39 mRNA [1]; 3.3 μM, Table 8): 92.53%; mRNA inhibition (hCD39 mRNA [1]; 10 μM, Table 8): 96.54%; IC50 (hCD39 mRNA [1]; [4]): 177 nM
2 | +G*+A*+T*A*G*T*T*T*C*C*A*A*T*+A*+C*+C (antisense GATAGTTTCCAATACC; sugars from the 5' end l3 d10 l3, all phosphorothioate, methylation of C not given here) [A04026H] | 0.07 | 0.08 | 0.03 | 0.03 | – | – | mRNA inhibition (hCD39 mRNA [1]; 0.0045 μM, Table 9): 29.98%; mRNA inhibition (hCD39 mRNA [1]; 0.013 μM, Table 9): 29.02%; mRNA inhibition (hCD39 mRNA [1]; 0.04 μM, Table 9): 54.32%; mRNA inhibition (hCD39 mRNA [1]; 0.12 μM, Table 9): 77.36%; mRNA inhibition (hCD39 mRNA [1]; 0.4 μM, Table 9): 92.99%; mRNA inhibition (hCD39 mRNA [1]; 1.1 μM, Table 9): 96.69%; mRNA inhibition (hCD39 mRNA [1]; 3.3 μM, Table 9): 99.20%; mRNA inhibition (hCD39 mRNA [1]; 10 μM, Table 9): 98.59%; IC50 (hCD39 mRNA [1]; second screening round (Table 9)): 61.5 nM
3 | +T*+T*+A*C*G*T*T*C*A*C*T*A*C*C*+T*+T*+C (antisense TTACGTTCACTACCTTC; sugars from the 5' end l3 d11 l3, all phosphorothioate, methylation of C not given here) [A04044H] | 0.07 | 0.04 | 0.05 | * | – | – | mRNA inhibition (hCD39 mRNA [1]; 0.0045 μM, Table 8): 12.17%; mRNA inhibition (hCD39 mRNA [1]; 0.013 μM, Table 8): 26.25%; mRNA inhibition (hCD39 mRNA [1]; 0.04 μM, Table 8): 45.88%; mRNA inhibition (hCD39 mRNA [1]; 0.12 μM, Table 8): 68.28%; mRNA inhibition (hCD39 mRNA [1]; 0.4 μM, Table 8): 82.63%; mRNA inhibition (hCD39 mRNA [1]; 1.1 μM, Table 8): 91.19%; mRNA inhibition (hCD39 mRNA [1]; 3.3 μM, Table 8): 96.20%; mRNA inhibition (hCD39 mRNA [1]; 10 μM, Table 8): 98.71%; IC50 (hCD39 mRNA [1]; [4]): 46.3 nM
4 | +G*+T*+T*T*G*T*G*T*G*A*G*A*G*C*+T (antisense GTTTGTGTGAGAGCT; sugars from the 5' end l3 d11 l1, all phosphorothioate, methylation of C not given here) [A04061H] | – | – | – | – | 0.10 | 0.01 | mRNA inhibition (hCD39 mRNA [1]; 4 nM, Table 12): 0.00%; mRNA inhibition (hCD39 mRNA [1]; 12 nM, Table 12): 0.00%; mRNA inhibition (hCD39 mRNA [1]; 40 nM, Table 12): 19.90%; mRNA inhibition (hCD39 mRNA [1]; 110 nM, Table 12): 69.28%; mRNA inhibition (hCD39 mRNA [1]; 330 nM, Table 12): 92.28%; mRNA inhibition (hCD39 mRNA [1]; 1000 nM, Table 12): 97.43%; IC50 (hCD39 mRNA [1]; third screening round (Table 12)): 66.8 nM
5 | +G*+C*+C*C*T*G*A*T*G*T*T*T*G*+A*+A*+T (antisense GCCCTGATGTTTGAAT; sugars from the 5' end l3 d10 l3, all phosphorothioate, methylation of C not given here) [A04054H] | – | – | – | – | 0.60 | 0.13 | –
6 | +G*+A*+G*G*C*G*A*A*A*T*T*G*C*A*+G*+A (antisense GAGGCGAAATTGCAGA; sugars from the 5' end l3 d11 l2, all phosphorothioate, methylation of C not given here) [A04024H] | 0.45 | 0.45 | 0.15 | 0.15 | – | – | –
7 | +A*+G*+G*C*G*A*A*A*T*T*G*C*+A*+G*+A (antisense AGGCGAAATTGCAGA; sugars from the 5' end l3 d9 l3, all phosphorothioate, methylation of C not given here) [A04008H] | 0.46 | 0.46 | 0.20 | 0.20 | – | – | –
8 | +C*+A*+T*G*T*A*G*C*C*C*A*A*A*+G*+T*+C (antisense CATGTAGCCCAAAGTC; sugars from the 5' end l3 d10 l3, all phosphorothioate, methylation of C not given here) [A04029H] | 0.45 | 0.46 | 0.03 | 0.03 | – | – | –
9 | +G*G*+T*T*T*G*T*G*T*G*A*G*+A*G*+C (antisense GGTTTGTGTGAGAGC; sugars from the 5' end ldldddddddddldl, all phosphorothioate, methylation of C not given here) [A04062H] | – | – | – | – | 0.17 | 0.01 | –
10 | +G*+A*G*T*A*C*A*A*C*T*G*A*+A*+C*+C (antisense GAGTACAACTGAACC; sugars from the 5' end l2 d10 l3, all phosphorothioate, methylation of C not given here) [A04018H] | 0.19 | 0.20 | 0.12 | 0.12 | – | – | –
